Source: patent US9889146B2, “Benzoxaborole compounds and uses thereof” (priority 2012, dated 2018)
≈ marks a conversion by molar mass, not a printed value. Entries after “also recorded” stand apart in the source; their conditions may differ.

Legend:
P. aeruginosa = assay: In vitro activity against P. aeruginosa clinical isolates; type: cell-based; conditions: for % susceptible: P. aeruginosa, 2,008 clinical isolates, GSK2251052 based on potential susceptible breakpoint of ≦4 μg/mL
Protocol: GSK2251052 was tested for activity against P. aeruginosa, and its activity was compared to other antibiotics of known activity. The results are shown below in Tables 2a and 2b. Of 2,008 clinical isolates tested (from 2009-2010 subjects, of which 40% were from North America) greater than 90% were susceptible to GSK2251052 based on a potential susceptible breakpoint of ≦4 μg/mL.

Proteus vulgaris (WT) = assay: microbe, parasite or virus in culture; type: cell-based; conditions: Proteus vulgaris (WT)
[1] = system: Enterobacter cloacae (WT); assay: microbe, parasite or virus in culture; type: cell-based
[2] = system: clinical isolates from the four subjects (E. coli, P. mirabilis, K. pneumoniae); assay: Resistance in clinical isolates of the phase II clinical trial; type: cell-based
Protocol: A comparative, dose-ranging study of GSK2251052 vs. imipenem-cilastatin in complicated lower urinary tract infection and pyelonephritis was undertaken with 210 targeted patients (20 actually enrolled) in a phase II clinical trial. The study was designed to determine the appropriate and safe dose for Phase III trials. Doses were 750 mg or 1500 mg twice a day, compared to an active comparator, with an independent safety review committee.
The phase II clinical trial identified four subjects who developed spontaneous resistance to GSK2251052 as evidenced by increased MICs (>32-fold) determined for the clinical isolates from the four subjects. Two of the resistant mutant strains identified were E. coli strains, one was a P. mirabilis strain, and one was a K. pneumoniae strain.

[3] = system: E. coli 1162222 (standard strain) and clinical isolate 1a of E. coli; assay: Frequency of spontaneous resistance to GSK2251052 in the presence of norvaline; type: cell-based, Escherichia coli
Protocol: Clinical strains of Escherichia coli and Proteus mirabilis isolated from the above-described clinical trial study (Table 12), along with other E. coli strains were used to measure the suppression of the emergence of resistant bacterial strains in vitro and to determine the susceptibility of these GSK2251052 resistant bacterial isolates to norvaline.
GSK2251052 and norvaline were prepared at a concentration of 6.4 mg/mL (free base) in 100% DMSO and 100% water respectively, aliquoted in 0.5 mL individual stocks, and stored at −20° C. until required.
Plates were poured and left to cool and solidify.
Cultures were prepared by inoculating broth with a bacterial suspension in saline, prepared from plates derived from individual colonies. For each organism, 100 mL of CAMHB was inoculated with 5 mL of a bacterial suspension with turbidity equivalent to 0.5 McFarland. These cultures were incubated on an orbital shaker at 37° C. until the broth was visibly turbid (approximately 3 hours). Following incubation, cultures were centrifuged at 11,000 g for 10 min at 4° C. The culture media was then decanted and cell pellets were resuspended to an appropriate cell concentration in fresh CAMHB or M9. The ratio of OD625 to CFU/mL used to approximate culture size is 0.1:1.0×10^8. Targeted E. coli cell concentrations were 2×10^9 CFU/mL.
Viable counts were performed to determine the concentration of the initial test inoculum using the following steps: 1) ten-fold serial dilutions of each sample were prepared; 2) three 20 μL aliquots from wells corresponding to 10^−5, […], 10^−7 and 10^−8 dilutions were plated onto the appropriate agar plates; 3) the plates were incubated overnight at 35° C. and counts were performed at the dilution that provided distinguishable colonies; 4) an average of the three aliquots was used to determine the number of colony forming units (CFU) in the original sample.
In addition, 100 μL of each cell suspension was spread onto the surface of plates containing the appropriate multiple of MIC concentration of compound and a control agar plate containing no compound. Plates were incubated at 35° C. in ambient air.
Colonies were counted after 24, 48 and 72 hours. […] In order to confirm their resistance phenotype, the susceptibility of these isolates to the selecting agent was tested by broth microdilution methodology.
The frequency of spontaneous resistance was calculated by dividing the total number of resistant colonies growing on plates containing antibiotic by the total number of colony forming units plated. In order to confirm the resistance phenotype, the MIC of the selecting agent was determined against a representative number of colonies from each antibiotic concentration/strain combination. […] The total number of resistant colonies on the plates was extrapolated from the representative set tested.

[4] = Pseudomonas aeruginosa, P. aeruginosa clinical isolates
[5] = GSK2251052 breakpoint, read-out: susceptibility category of MIC90

Question: With NC[C@H]1OB(O)c2c(OCCCO)cccc21 [GSK2251052, (S)-3-aminomethyl-7-(3-hydroxy-propoxy)-3h-benzo[c][1,2]oxaborol-1-ol] as the compound, how does the “MIC Range” value (P. aeruginosa; P. aeruginosa clinical isolates) read?
Answer: The value was 0.06 to 64 µg/mL.

Question: What about the “% susceptible” value (P. aeruginosa) of the same compound?
Answer: Its value is “greater than 90%”.

Question: What about the “% susceptible” value (P. aeruginosa; listed as GSK2250152) of the same compound?
Answer: The value was 92.8%.

Question: And the MIC50 (P. aeruginosa; [4])?
Answer: The MIC50 was 2 µg/mL (≈ 8.44 µM).

Question: What about the MIC90 (P. aeruginosa; [4]) of the same compound?
Answer: Its MIC90 is 4 µg/mL (≈ 16.9 µM).

Question: And the MIC90 (Proteus vulgaris (WT); 41 isolates, read-out: MIC90)?
Answer: The MIC90 was 1 µg/mL (≈ 4.22 µM).

Question: And the susceptibility category of MIC90 (Proteus vulgaris (WT); [5])?
Answer: The susceptibility category of MIC90 was under 4 µg/mL.

Question: What about the MIC90 ([1]; 202 isolates, read-out: MIC90) of the same compound?
Answer: The MIC90 was 1 µg/mL (≈ 4.22 µM).

Question: What about the susceptibility category of MIC90 [1, 5] of the same compound?
Answer: Its susceptibility category of MIC90 is under 4 µg/mL.

Question: And the “rates of spontaneous resistance” value ([2]; baseline isolates tested)?
Answer: The value was ~10^−7.

Question: What about the “increase of MICs in clinical isolates” value ([2]; four subjects who developed spontaneous resistance, phase II trial) of the same compound?
Answer: Its value is over 32 fold.

Question: And the “Frequency of Resistant to GSK2251052 (4 μg/mL)” value (shortened to “Frequency of Resistant”) ([3]; CAMH Agar, E. coli Isolate 1a, Norvaline 0 μg/mL)?
Answer: Its value is 6.3 × 10^−8.

Question: What about the “Frequency of Resistant” value ([3]; CAMH Agar, E. coli Isolate 1a, Norvaline 2 μg/mL) of the same compound?
Answer: The value was 7.6 × 10^−8.

Question: What about the “Frequency of Resistant” value ([3]; CAMH Agar, E. coli Isolate 1a, Norvaline 4 μg/mL) of the same compound?
Answer: Its value is 4.7 × 10^−8.

Question: What about the “Frequency of Resistant” value ([3]; CAMH Agar, E. coli Isolate 1a, Norvaline 8 μg/mL) of the same compound?
Answer: The value was 6.3 × 10^−8.

Question: What about the “Frequency of Resistant” value ([3]; CAMH Agar, E. coli Isolate 1a, Norvaline 16 μg/mL) of the same compound?
Answer: The value was 4.5 × 10^−8.

Question: And the “Frequency of Resistant” value ([3]; CAMH Agar, E. coli Isolate 1a, Norvaline 32 μg/mL)?
Answer: The value was 5.0 × 10^−8.

Question: What about the “Frequency of Resistant” value ([3]; CAMH Agar, E. coli Isolate 1a, Norvaline 64 μg/mL) of the same compound?
Answer: Its value is 5.3 × 10^−8.

Question: What about the “Frequency of Resistant” value ([3]; CAMH Agar, E. coli baseline strain, Norvaline 0 μg/mL) of the same compound?
Answer: The value was 1.2 × 10^−7.

Question: And the “Frequency of Resistant” value ([3]; CAMH Agar, E. coli baseline strain, Norvaline 2 μg/mL)?
Answer: Its value is 5.0 × 10^−8.

Question: And the “Frequency of Resistant” value ([3]; CAMH Agar, E. coli baseline strain, Norvaline 4 μg/mL)?
Answer: The value was 1.2 × 10^−7.

Question: What about the “Frequency of Resistant” value ([3]; CAMH Agar, E. coli baseline strain, Norvaline 8 μg/mL) of the same compound?
Answer: Its value is 6.8 × 10^−8.

Question: What about the “Frequency of Resistant” value ([3]; CAMH Agar, E. coli baseline strain, Norvaline 16 μg/mL) of the same compound?
Answer: Its value is 6.1 × 10^−8.

Question: What about the “Frequency of Resistant” value ([3]; CAMH Agar, E. coli baseline strain, Norvaline 32 μg/mL) of the same compound?
Answer: Its value is 1.1 × 10^−7.

Question: And the “Frequency of Resistant” value ([3]; CAMH Agar, E. coli baseline strain, Norvaline 64 μg/mL)?
Answer: Its value is 9.3 × 10^−8.

Question: And the “Frequency of Resistant” value ([3]; M9 Agar, E. coli Isolate 1a, Norvaline 0 μg/mL)?
Answer: Its value is 3.8×10^−7.

Question: And the “Frequency of Resistant” value ([3]; M9 Agar, E. coli Isolate 1a, Norvaline 2 μg/mL)?
Answer: Its value is 4.8×10^−8.

Question: What about the “Frequency of Resistant” value ([3]; M9 Agar, E. coli Isolate 1a, Norvaline 4 μg/mL) of the same compound?
Answer: The value was <1.7 × 10^−9.

Question: What about the “Frequency of Resistant” value ([3]; M9 Agar, E. coli Isolate 1a, Norvaline 8 μg/mL) of the same compound?
Answer: Its value is <1.7 × 10^−9.

Question: What about the “Frequency of Resistant” value ([3]; M9 Agar, E. coli Isolate 1a, Norvaline 16 μg/mL) of the same compound?
Answer: Its value is <1.7 × 10^−9.

Question: What about the “Frequency of Resistant” value ([3]; M9 Agar, E. coli Isolate 1a, Norvaline 32 μg/mL) of the same compound?
Answer: Its value is <1.7 × 10^−9.

Question: What about the “Frequency of Resistant” value ([3]; M9 Agar, E. coli Isolate 1a, Norvaline 64 μg/mL) of the same compound?
Answer: The value was <1.7 × 10^−9.

Question: And the “Frequency of Resistant” value ([3]; M9 Agar, E. coli baseline strain, Norvaline 0 μg/mL)?
Answer: The value was 4.9×10^−8.

Question: What about the “Frequency of Resistant” value ([3]; M9 Agar, E. coli baseline strain, Norvaline 2 μg/mL) of the same compound?
Answer: The value was 2.8 × 10^−8.

Question: What about the “Frequency of Resistant” value ([3]; M9 Agar, E. coli baseline strain, Norvaline 4 μg/mL) of the same compound?
Answer: The value was 2.0 × 10^−8.

Question: And the “Frequency of Resistant” value ([3]; M9 Agar, E. coli baseline strain, Norvaline 8 μg/mL)?
Answer: Its value is 6.0 × 10^−8.

Question: And the “Frequency of Resistant” value ([3]; M9 Agar, E. coli baseline strain, Norvaline 16 μg/mL)?
Answer: Its value is 3.0 × 10^−9.

Question: And the “Frequency of Resistant” value ([3]; M9 Agar, E. coli baseline strain, Norvaline 32 μg/mL)?
Answer: The value was <1.0 × 10^−9.

Question: And the “Frequency of Resistant” value ([3]; M9 Agar, E. coli baseline strain, Norvaline 64 μg/mL)?
Answer: Its value is <1.0 × 10^−9.

Question: What about the “decrease in the frequency of resistance to GSK2251052” value ([3]; M9 minimal media, E. coli baseline strain, no norvaline versus >32 μg/mL) of the same compound?
Answer: Its value is at least 50 fold.

Question: What about the “decrease in the frequency of spontaneous resistance” value ([3]; M9 minimal media, E. coli clinical isolate from subject E. coli 1, no norvaline versus >4 μg/mL) of the same compound?
Answer: The value was “over 200 fold”.

Question: What about the “effect of norvaline on frequency of resistance in rich media” value ([3]; both E. coli strains, rich media, GSK2251052 4 μg/mL, norvaline up to 64 μg/mL) of the same compound?
Answer: Its value is “remained the same; also recorded: did not change the frequency of spontaneous resistance”.

Question: What about the “frequency of resistance to GSK2251052” value ([3]; minimal media, E. coli clinical isolate 1a, norvaline ≧4 μg/mL) of the same compound?
Answer: The value was < 1.7×10^−9.

Question: What about the “reduction of the appearance of mutants” value ([3]; minimal media, baseline E. coli strain, norvaline at 8 μg/mL) of the same compound?
Answer: Its value is 10 fold.

Question: And the “frequency of resistance to GSK2251052” value ([3]; minimal media, baseline E. coli strain, norvaline ≧32 μg/mL)?
Answer: Its value is < 1×10^−9.
